Patent US8889874B2, “Imidazolone-chalcone derivatives as potential anticancer agent and process for the preparation thereof” (Council of Scientific and Industrial Research, priority 2010, dated 2014)
Like-named read-outs stand apart in the source and are kept apart here.

Assays:
Type in all cases: cell-based, human
[1] = tested on: 786-0 (renal); assay: NCI anticancer screen, SRB assay, 48 h; settings: Homo sapiens
Outline: (§1)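 Compounds were tested across fifty three human cancer cell lines from nine tumour types. Each line got a dose-response curve of at least five concentrations at 10-fold dilutions, with continuous drug exposure and sulforhodamine B protein staining to estimate viability or growth.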

[2] = tested on: A498 (renal); assay: NCI anticancer screen, SRB assay, 48 h; settings: Homo sapiens
Outline: as §1

[3] = tested on: A549/ATCC (non-small cell lung); assay: NCI anticancer screen, SRB assay, 48 h; settings: Homo sapiens
Outline: as §1

[4] = tested on: HCT-116 (colon); assay: NCI anticancer screen, SRB assay, 48 h; settings: Homo sapiens
Outline: as §1

[5] = tested on: MCF7 (breast); assay: NCI anticancer screen, SRB assay, 48 h; settings: Homo sapiens
Outline: as §1

[6] = tested on: MDA-MB-435 (melanoma); assay: NCI anticancer screen, SRB assay, 48 h; settings: Homo sapiens
Outline: as §1

[7] = tested on: NCI-H322M (non-small cell lung); assay: NCI anticancer screen, SRB assay, 48 h; settings: Homo sapiens
Outline: as §1

[8] = tested on: OVCAR-4 (ovarian); assay: NCI anticancer screen, SRB assay, 48 h; settings: Homo sapiens
Outline: as §1

[9] = tested on: PC-3 (prostate); assay: NCI anticancer screen, SRB assay, 48 h; settings: Homo sapiens
Outline: as §1

[10] = tested on: RPMI-8226 (leukemia cell line); assay: NCI anticancer screen, SRB assay, 48 h; settings: Homo sapiens
Outline: as §1

[11] = tested on: RXF 393 (renal); assay: NCI anticancer screen, SRB assay, 48 h; settings: Homo sapiens
Outline: as §1

[12] = tested on: SF-295 (CNS); assay: NCI anticancer screen, SRB assay, 48 h; settings: Homo sapiens
Outline: as §1

[13] = tested on: SK-MEL-28 (melanoma); assay: NCI anticancer screen, SRB assay, 48 h; settings: Homo sapiens
Outline: as §1

[14] = tested on: SK-MEL-5 (melanoma); assay: NCI anticancer screen, SRB assay, 48 h; settings: Homo sapiens
Outline: as §1

[15] = tested on: SW-620 (colon); assay: NCI anticancer screen, SRB assay, 48 h; settings: Homo sapiens
Outline: as §1

[16] = tested on: U251 (CNS); assay: NCI anticancer screen, SRB assay, 48 h; settings: Homo sapiens
Outline: as §1

[17] = tested on: UO-31 (renal); assay: NCI anticancer screen, SRB assay, 48 h; settings: Homo sapiens
Outline: as §1

[18] = tested on: Breast cancer cell lines; assay: NCI anticancer screen, SRB assay, panel summary; settings: Homo sapiens
Outline: as §1

[19] = tested on: CNS cancer cell lines; assay: NCI anticancer screen, SRB assay, panel summary; settings: for GI50: Homo sapiens
Outline: as §1

[20] = tested on: Colon cancer cell lines; assay: NCI anticancer screen, SRB assay, panel summary; settings: for GI50: Homo sapiens
Outline: as §1

[21] = tested on: Leukemia cancer cell lines; assay: NCI anticancer screen, SRB assay, panel summary; settings: Homo sapiens
Outline: as §1

[22] = tested on: Melanoma cancer cell lines; assay: NCI anticancer screen, SRB assay, panel summary; settings: for GI50: Homo sapiens
Outline: as §1

[23] = tested on: Non-small cell lung cancer cell lines; assay: NCI anticancer screen, SRB assay, panel summary; settings: Homo sapiens
Outline: as §1

[24] = tested on: Ovarian cancer cell lines; assay: NCI anticancer screen, SRB assay, panel summary; settings: Homo sapiens
Outline: as §1

[25] = tested on: Prostate cancer cell lines; assay: NCI anticancer screen, SRB assay, panel summary
Outline: as §1

[26] = tested on: Renal cancer cell lines; assay: NCI anticancer screen, SRB assay, panel summary; settings: Homo sapiens
Outline: as §1

[27] = 48 h exposure, SRB, read-out: GI50
[28] = read-out: pGI50 (-log of molar concentration causing 50% inhibition of net cell growth) (converted)

For COc1cc(/C=C/C(=O)c2cccc(-n3cc(-c4ccccc4)[nH]c3=O)c2)cc(OC)c1OC [5a, 4-phenyl-1-3-[(E)-3-(3,4,5-trimethoxyphenyl)-2-propenoyl]phenyl-2,3-dihydro-1H-2-imidazolone], the GI50 [1, 27] was 1380 nM, the GI50 [1, 28] was 1380 nM and the GI50 [2, 27] was 2650 nM. For the same compound, the GI50 [2, 28] was 2630 nM, the GI50 [3, 27] was 4030 nM and the GI50 [3, 28] was 4070 nM. It also gave a GI50 [4, 27] of 330 nM, a GI50 [4, 28] of 331 nM and a GI50 [5, 27] of 310 nM. For the same compound, the GI50 [5, 28] was 309 nM, the GI50 [6, 27] was 1200 nM and the GI50 [6, 28] was 1200 nM. For the same compound, the GI50 [7, 27] was 2020 nM, the GI50 [7, 28] was 2040 nM and the GI50 [8, 27] was 1880 nM. It also gave a GI50 [8, 28] of 1860 nM, a GI50 ([9]; PC-3, read-out: pGI50 (-log of molar concentration causing 50% inhibition of net cell growth) (converted)) of 3240 nM and a GI50 ([9]; one prostate cancer cell line (PC-3), exposure at least 48 hrs, read-out: GI50) of 3260 nM. For the same compound, the GI50 [10, 27] was 620 nM, the GI50 [10, 28] was 617 nM and the GI50 ([11]; RXF 393, 48 h exposure, SRB, read-out: GI50) was 1710 nM. The GI50 ([11]; RXF-393, read-out: pGI50 (-log of molar concentration causing 50% inhibition of net cell growth) (converted)) was 1700 nM, the GI50 [12, 27] was 1900 nM and the GI50 [12, 28] was 1910 nM. It also gave a GI50 [13, 27] of 1740 nM, a GI50 [13, 28] of 1740 nM and a GI50 [14, 27] of 1400 nM. It also gave a GI50 [14, 28] of 1410 nM, a GI50 [15, 27] of 390 nM and a GI50 [15, 28] of 389 nM. For the same compound, the GI50 ([16]; U-251, 48 h exposure, SRB, read-out: GI50) was 630 nM, the GI50 ([16]; U-251, read-out: pGI50 (-log of molar concentration causing 50% inhibition of net cell growth) (converted)) was 631 nM and the GI50 [17, 27] was 1510 nM. It also gave a GI50 [17, 28] of 1510 nM, a GI50 ([18]; Breast panel, log of concentration in mol/L causing 50% inhibition of net cell growth, read-out: mean graph midpoint (MG_MID) of Log10 GI50 (converted)) of 1580 nM and an LC50 ([18]; Breast panel, log of concentration leading to 50% net cell death, read-out: mean graph midpoint (MG_MID) of Log10 LC50 (converted)) of 38000 nM. The GI50 ([18]; five breast cancer cell lines, exposure at least 48 hrs, read-out: GI50, range over the panel) was 310 to 3410 nM, the “mean graph midpoint (MG_MID) of Log10 LC50” value ([19]; CNS panel, log of concentration leading to 50% net cell death) was 5.13 and the GI50 ([19]; CNS panel, log of concentration in mol/L causing 50% inhibition of net cell growth, read-out: mean graph midpoint (MG_MID) of Log10 GI50 (converted)) was 1860 nM. For the same compound, the GI50 ([19]; six CNS cancer cell lines, exposure at least 48 hrs, read-out: GI50, range over the panel) was 630 to 4470 nM, the “mean graph midpoint (MG_MID) of Log10 LC50” value ([20]; Colon panel, log of concentration leading to 50% net cell death) was 5.23 and the GI50 ([20]; Colon panel, log of concentration in mol/L causing 50% inhibition of net cell growth, read-out: mean graph midpoint (MG_MID) of Log10 GI50 (converted)) was 832 nM. It also gave a GI50 ([20]; seven colon cancer cell lines, exposure at least 48 hrs, read-out: GI50, range over the panel) of 330 to 1510 nM, a GI50 ([21]; Leukemia panel, log of concentration in mol/L causing 50% inhibition of net cell growth, read-out: mean graph midpoint (MG_MID) of Log10 GI50 (converted)) of 562 nM and an LC50 ([21]; Leukemia panel, log of concentration leading to 50% net cell death, read-out: mean graph midpoint (MG_MID) of Log10 LC50 (converted)) of at least 100000 nM. The GI50 ([21]; two leukemia cancer cell lines (RPMI-8226 and K-562), exposure at least 48 hrs, read-out: GI50, range over the panel) was 500 to 620 nM, the GI50 ([22]; Melanoma panel, log of concentration in mol/L causing 50% inhibition of net cell growth, read-out: mean graph midpoint (MG_MID) of Log10 GI50 (converted)) was 1320 nM and the GI50 ([22]; nine melanoma cancer cell lines, exposure at least 48 hrs, read-out: GI50, range over the panel) was 480 to 2060 nM. The “mean graph midpoint (MG_MID) of Log10 LC50” value ([22]; Melanoma panel, log of concentration leading to 50% net cell death) was 5.02, the GI50 ([23]; Non-small cell lung panel, log of concentration in mol/L causing 50% inhibition of net cell growth, read-out: mean graph midpoint (MG_MID) of Log10 GI50 (converted)) was 3090 nM and the LC50 ([23]; Non-small cell lung panel, log of concentration leading to 50% net cell death, read-out: mean graph midpoint (MG_MID) of Log10 LC50 (converted)) was 32400 nM. The GI50 ([23]; nine non-small cell lung cancer cell lines, exposure at least 48 hrs, read-out: GI50, range over the panel) was 950 to 14600 nM, the GI50 ([24]; Ovarian panel, log of concentration in mol/L causing 50% inhibition of net cell growth, read-out: mean graph midpoint (MG_MID) of Log10 GI50 (converted)) was 1740 nM and the LC50 ([24]; Ovarian panel, log of concentration leading to 50% net cell death, read-out: mean graph midpoint (MG_MID) of Log10 LC50 (converted)) was 42700 nM. It also gave a GI50 ([24]; six ovarian cancer cell lines, exposure at least 48 hrs, read-out: GI50, range over the panel) of 1100 to 3270 nM, a GI50 ([25]; Homo sapiens, log of concentration in mol/L causing 50% inhibition of net cell growth, read-out: mean graph midpoint (MG_MID) of Log10 GI50 (converted)) of 3240 nM and an LC50 ([25]; Homo sapiens, log of concentration leading to 50% net cell death, read-out: mean graph midpoint (MG_MID) of Log10 LC50 (converted)) of at least 100000 nM. The “mean graph midpoint (MG_MID) of Log10 TGI” value ([25]; log of concentration resulting in total inhibition of net cell growth) was 4.68, the GI50 ([26]; Renal panel, log of concentration in mol/L causing 50% inhibition of net cell growth, read-out: mean graph midpoint (MG_MID) of Log10 GI50 (converted)) was 1910 nM and the LC50 ([26]; Renal panel, log of concentration leading to 50% net cell death, read-out: mean graph midpoint (MG_MID) of Log10 LC50 (converted)) was 17000 nM. For the same compound, the GI50 ([26]; eight renal cancer cell lines, exposure at least 48 hrs, read-out: GI50, range over the panel) was 1380 to 3020 nM.
